# Assay results taken from patent US20100330588A1, “METHOD TO QUANTIFY METHYLTRANSFERASE ACTIVITY” (Utah State University, priority 2009, published 2010).
# System: Histone H3.3
# Test: methylation of Histone H3.3 by PRMT6 fusion proteins, reverse phase resin method of scheme 2
# Assay type: biochemical
# Conditions: 500 nM enzyme; 1.7 μM Histone H3.3; 37° C.
# Description: Assays were performed at 37° C., in a final volume of 125 μl. Each assay contained 1.0 μM unlabeled S-adenosyl-L-methionine (AdoMet), […] S-adenosyl-L-[methyl-^3H]methionine (specific activity 67.3 Ci/mmol, 0.55 μCi/μl, Perkin Elmer), 100 mM Hepes, 0.38 μM bovine serum albumin (BSA), 10% glycerol, 10 nM AdoHcy Nucleosidase (MTAN), and 1.7 μM protein substrate; pH of reaction was 7.6. […] Samples (10 μL) were removed at specified times and were analyzed using either SDS-PAGE or methods related to the present disclosure, as discussed below.
# A 10 µL aliquot of the reaction mixture was transferred to 6 μl of sample preparation buffer (8 M Guanidine-HCL in 2.5% trifluoroacetic acid (TFA)), making the final concentrations 3 M Guanidine-HCL and 0.94% TFA in the mixture. Guanidine-HCl denatures the protein and TFA makes the reaction very acidic so that PRMT activity is quenched. […] Eluate was dispensed into 20 ml of scintillation cocktail (Fisher Scientific) and counted in a LSC.
# Referring now to FIG. 4, there is shown the comparison of the methylation activities of GST-PRMT6 and His-PRMT6 using the method disclosed in scheme 2. […] The reactions were processed and counted in scintillation cocktail.
substance,measurement,value
His-PRMT6: His-tagged PRMT6 protein arginine methyltransferase expressed in E. coli BL21 and purified,fold higher methylation activity compared to GST-PRMT6,5 fold
